Two compounds from article PMC10976477 (RSC Advances, 2024) can be followed below.

Read-outs that look alike come from different tables or passages of the source.

The target in one data set is T1, human MAO-A (Homo sapiens, UniProt P21397).
T1 sequence (P21397 1-527): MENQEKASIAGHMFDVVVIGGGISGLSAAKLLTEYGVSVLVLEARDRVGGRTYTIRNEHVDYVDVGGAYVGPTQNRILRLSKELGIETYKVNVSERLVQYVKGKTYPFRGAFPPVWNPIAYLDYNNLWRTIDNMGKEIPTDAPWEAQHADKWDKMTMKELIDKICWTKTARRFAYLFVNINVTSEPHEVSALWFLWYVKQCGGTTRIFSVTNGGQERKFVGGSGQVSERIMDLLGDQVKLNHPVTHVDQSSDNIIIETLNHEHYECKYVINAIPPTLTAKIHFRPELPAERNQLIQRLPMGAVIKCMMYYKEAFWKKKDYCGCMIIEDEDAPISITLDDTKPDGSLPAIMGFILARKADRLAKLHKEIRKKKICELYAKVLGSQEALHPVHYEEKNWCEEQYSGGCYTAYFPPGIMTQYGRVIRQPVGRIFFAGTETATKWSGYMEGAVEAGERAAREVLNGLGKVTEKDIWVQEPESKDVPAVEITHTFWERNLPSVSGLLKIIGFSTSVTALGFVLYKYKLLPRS
The experiment in a line: MAO-A inhibition assay. Format: biochemical.

Data set [1] is described as follows: ABTS radical cation scavenging assay. Particulars: read-out: IC50 (μM) ± SEM ABTS.
Data set [2] deals with T2, eqBChE (Equus caballus, UniProt P81908). As to the kind of experiment: Cholinesterase inhibition, Ellman's assay. Conditions: read-out: IC50 (μM) ± SEM eqBChE; mean ± SEM; n = 3. (In general: Ellman's reagent forms a yellow product with free thiols.)
T2 sequence (P81908 whole entry): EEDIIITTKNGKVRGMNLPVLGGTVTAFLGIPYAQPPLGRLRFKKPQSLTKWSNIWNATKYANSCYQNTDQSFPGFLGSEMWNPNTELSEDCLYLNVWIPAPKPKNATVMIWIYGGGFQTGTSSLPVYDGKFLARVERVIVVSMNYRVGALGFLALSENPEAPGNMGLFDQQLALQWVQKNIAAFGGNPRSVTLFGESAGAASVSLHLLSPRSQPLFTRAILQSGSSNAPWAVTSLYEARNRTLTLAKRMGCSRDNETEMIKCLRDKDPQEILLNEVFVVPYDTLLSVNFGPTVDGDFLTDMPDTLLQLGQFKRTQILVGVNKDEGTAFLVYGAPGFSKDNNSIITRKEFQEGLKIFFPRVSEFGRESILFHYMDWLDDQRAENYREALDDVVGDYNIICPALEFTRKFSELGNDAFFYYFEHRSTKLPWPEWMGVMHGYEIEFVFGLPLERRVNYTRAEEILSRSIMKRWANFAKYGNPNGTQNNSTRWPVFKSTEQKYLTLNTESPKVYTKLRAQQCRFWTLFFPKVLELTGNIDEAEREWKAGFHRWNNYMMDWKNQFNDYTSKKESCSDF
Another data set addresses T3, human MAO-B (Homo sapiens, UniProt P27338).
T3 sequence (P27338 1-520): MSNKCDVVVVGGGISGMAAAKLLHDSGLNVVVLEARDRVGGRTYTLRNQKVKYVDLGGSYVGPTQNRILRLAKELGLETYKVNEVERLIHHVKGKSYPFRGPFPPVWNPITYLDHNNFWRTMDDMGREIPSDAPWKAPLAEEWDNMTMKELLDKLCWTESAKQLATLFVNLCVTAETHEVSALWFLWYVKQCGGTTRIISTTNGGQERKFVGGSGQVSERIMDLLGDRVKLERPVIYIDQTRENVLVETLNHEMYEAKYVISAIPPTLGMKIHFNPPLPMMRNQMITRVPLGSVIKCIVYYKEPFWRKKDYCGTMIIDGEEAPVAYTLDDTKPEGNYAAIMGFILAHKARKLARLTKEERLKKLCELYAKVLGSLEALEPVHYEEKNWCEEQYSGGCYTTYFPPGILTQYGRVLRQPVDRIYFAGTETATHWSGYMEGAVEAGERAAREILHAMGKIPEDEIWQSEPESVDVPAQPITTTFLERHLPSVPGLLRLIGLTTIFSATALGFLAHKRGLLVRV
As to the kind of experiment: MAO-B inhibition assay. Format: biochemical. Conditions: for SI = IC50 of MAO-A/IC50 of MAO-B: selectivity index.

The nature of data set [3]: DPPH radical scavenging assay. Particulars: read-out: IC50 (μM) ± SEM DPPH. On the technique in general: The DPPH test is a chemical assay of radical scavenging.
For another data set, the target named is eeAChE (Electrophorus electricus, UniProt O42275). As to the kind of experiment: Cholinesterase inhibition, Ellman's assay. Particulars: for SI = IC50 of BChE/IC50 of AChE: selectivity index. Format: biochemical, electric eel.
Chain of eeAChE (O42275 24-633): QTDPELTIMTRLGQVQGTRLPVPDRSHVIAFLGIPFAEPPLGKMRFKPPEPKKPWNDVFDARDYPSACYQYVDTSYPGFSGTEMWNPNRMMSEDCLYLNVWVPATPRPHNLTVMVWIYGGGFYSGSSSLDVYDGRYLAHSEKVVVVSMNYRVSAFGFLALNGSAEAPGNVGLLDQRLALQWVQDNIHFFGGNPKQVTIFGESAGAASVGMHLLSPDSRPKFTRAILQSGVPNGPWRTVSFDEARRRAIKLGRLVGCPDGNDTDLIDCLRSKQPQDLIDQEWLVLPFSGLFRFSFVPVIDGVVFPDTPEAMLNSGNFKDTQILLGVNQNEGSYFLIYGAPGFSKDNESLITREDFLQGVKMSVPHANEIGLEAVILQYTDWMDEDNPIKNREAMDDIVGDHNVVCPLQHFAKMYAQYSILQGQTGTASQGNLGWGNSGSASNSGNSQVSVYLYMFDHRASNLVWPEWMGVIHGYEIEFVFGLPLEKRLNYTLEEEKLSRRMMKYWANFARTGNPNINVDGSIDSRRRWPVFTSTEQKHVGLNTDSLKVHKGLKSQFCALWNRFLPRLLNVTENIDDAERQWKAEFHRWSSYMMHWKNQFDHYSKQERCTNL
Data set [4] addresses T2, eqBChE. As to the kind of experiment: biochemical.
Data set [5] in a line: In vivo antioxidant potential in mice. Conditions: 5 mg kg^−1, SOD, CAT, GSH.
A further data set relates to SH-SY5Y cells. As to the kind of experiment: SH-SY5Y neuroblastoma cell toxicity. Format: cell-based, human. Conditions: 10–100 μM, 48 h incubation, MTT.
For the next data set, the target named is T4, COX-2 (Homo sapiens, UniProt P35354).
T4 sequence (P35354 18-604): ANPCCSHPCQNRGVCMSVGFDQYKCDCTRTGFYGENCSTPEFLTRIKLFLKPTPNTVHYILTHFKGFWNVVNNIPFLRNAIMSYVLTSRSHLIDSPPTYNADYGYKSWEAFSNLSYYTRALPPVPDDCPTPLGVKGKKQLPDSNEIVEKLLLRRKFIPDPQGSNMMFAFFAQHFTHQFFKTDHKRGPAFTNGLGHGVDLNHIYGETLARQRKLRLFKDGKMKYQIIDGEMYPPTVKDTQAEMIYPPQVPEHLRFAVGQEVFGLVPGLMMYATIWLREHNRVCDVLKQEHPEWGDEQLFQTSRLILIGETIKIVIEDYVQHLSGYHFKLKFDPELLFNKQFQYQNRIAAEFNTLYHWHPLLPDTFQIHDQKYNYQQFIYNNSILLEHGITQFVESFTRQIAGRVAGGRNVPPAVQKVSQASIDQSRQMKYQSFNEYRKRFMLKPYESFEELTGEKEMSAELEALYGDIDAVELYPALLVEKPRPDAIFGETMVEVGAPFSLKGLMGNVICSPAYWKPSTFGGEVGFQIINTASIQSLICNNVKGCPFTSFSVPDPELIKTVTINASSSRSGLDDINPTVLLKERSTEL
As to the kind of experiment: biochemical.

The target of another data set is Aβ1–42 peptide (Homo sapiens, UniProt P05067). The experiment in a line: ThT fluorescence assay for self-mediated Aβ1–42 aggregation. Format: biochemical.
Chain of Aβ1–42 peptide (P05067 672-713): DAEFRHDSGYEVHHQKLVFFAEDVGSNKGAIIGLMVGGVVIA
The next data set concerns HEK-293 cells. The experiment in a line: Cell viability assay on normal human embryonic HEK-293 cells. Particulars: 1, 10, 20, 40 and 100 μM, MTT. Format: cell-based.
The next data set has as its system MDA. As to the kind of experiment: In vivo MDA level in brain of mice. Particulars: 5 mg kg^−1.
Data set [6] is described as follows: Ferric ion reducing antioxidant power. Conditions: μM equivalent to the standard antioxidant ascorbic acid.
A further data set concerns SOD. As to the kind of experiment: In vivo SOD level in brain of mice. Particulars: 5 mg kg^−1.
The test system of the next data set is CAT. The experiment in a line: In vivo CAT activity in brain of mice. Particulars: high-test dose.
In a further data set the test system is GSH-Px. As to the kind of experiment: In vivo GSH-Px activity in brain of mice. Particulars: 5 mg kg^−1.

`COc1cc(/C=C/C(=O)Nc2nc3ccc(O)cc3s2)ccc1OCc1ccccc1` [Compound 22, (E)-3-(4-(Benzyloxy)-3-methoxyphenyl)-N-(6-hydroxybenzo[d]thi-azol-2-yl)acrylamide]: the IC50 on human MAO-A (read-out: IC50 (μM) ± SEM MAO-A, mean ± SEM, n = 3) was determined as 19.4 ± 1.1 µM; in data set [1], 43.2 ± 1.34 µM; at eqBChE [2], 37.4 ± 1.17 µM; at human MAO-B (read-out: IC50 (μM) ± SEM MAO-B, mean ± SEM, n = 3), 0.348 ± 0.041 µM; in [3], 16.33 ± 0.1 µM; on eeAChE (read-out: IC50 (μM) ± SEM eeAChE, mean ± SEM, n = 3) it was 0.172 ± 0.1 µM. For the same compound, the “SI = IC50 of MAO-A/IC50 of MAO-B” value on human MAO-B was determined as 55. Also, the “SI = IC50 of BChE/IC50 of AChE” value at eeAChE is reported as 217.

With `O=C(Nc1nc2ccc(O)cc2s1)c1cc(O)c(O)c(O)c1` [Compound 28, 3,4,5-Trihydroxy-N-(6-hydroxybenzo[d]thiazol-2-yl)benzamide], the IC50 on eqBChE [4] stood at 9.25 ± 0.506 µM; against human MAO-A, 10.1 ± 0.239 µM; in [1] it was 2.06 ± 0.11 µM; against COX-2, 10.4 ± 0.13 µM; on Aβ1–42 peptide, 11.29 ± 0.08 µM; at human MAO-B it was 0.219 ± 0.34 µM. In addition, the IC50 in [3] was found to be 1.77 ± 0.04 µM; against eeAChE, 1.48 ± 0.1 µM. In addition, in data set [5], the “in vivo antioxidant activity” value is given as “good to moderate in vivo antioxidant activity”. Also, the “neurotoxicity / cytotoxicity on SH-SY5Y cells” value in the data set with SH-SY5Y cells was “did not show any apparent neurotoxicity”. In addition, the “inhibition of amyloid beta fibrils” value at Aβ1–42 peptide (after a 24-hour equimolar administration, ThT fluorescence (Fig. 4)) was “around 60%”. Besides, in the data set on HEK-293 cells, the “cytotoxic effect on viability of HEK-293 cells” value is “not showed in cytotoxic effect”. Moreover, the “MDA concentration in animal brains” value in the data set with MDA is 1.15 nmol/mL. The “SI = IC50 of MAO-A/IC50 of MAO-B” value on human MAO-B was 46. Moreover, the “FRAP value” in data set [6] is 45.24 µM. For the same compound, the “brain's SOD level” value in the data set with SOD is reported as 94.20 U mL^−1. Further, at eeAChE, the “SI = IC50 of BChE/IC50 of AChE” value worked out at 6. In addition, the CAT activity in the data set with CAT is 97 U mL^−1. The “brain GSH-Px activity” value in the data set with GSH-Px was “increases the antioxidant enzymatic activity of GSH-Px”.

By IC50 is commonly meant the concentration that inhibits the measured activity by half.
